Patent US20200171005A9, “Heterobifunctional Pan-Selectin Antagonists Having a Triazole Linker” (GlycoMimetics, Inc., priority 2015, published 2020)

Tests used:
[1] = target: T1, E-selectin (E-selectinLEC2 construct) (Homo sapiens, UniProt P16581); assay: Microscale Thermophoresis (MST) affinity assay for E-selectin; details: labeled E-selectinLEC2, HEPES buffer pH 7.4, 1 mM CaCl2, 25° C.; read-out: Binding Affinity (KD) to E-Selectin Determined by MST
T1 construct: a construct consisting of the lectin domain, the EGF like domain, and the first two short consensus repeats (E-selectinLEC2)
T1 sequence (P16581 22-301 limits assumed): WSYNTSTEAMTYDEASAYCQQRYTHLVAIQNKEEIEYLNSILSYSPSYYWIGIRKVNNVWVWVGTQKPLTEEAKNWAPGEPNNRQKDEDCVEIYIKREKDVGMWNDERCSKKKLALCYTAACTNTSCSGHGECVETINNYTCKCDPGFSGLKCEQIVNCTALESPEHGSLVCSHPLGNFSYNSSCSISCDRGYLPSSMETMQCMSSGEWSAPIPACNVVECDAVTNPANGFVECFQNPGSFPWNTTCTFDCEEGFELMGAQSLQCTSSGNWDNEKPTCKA
Experimental: For E-selectin, a construct consisting of the lectin domain, the EGF like domain, and the first two short consensus repeats (E-selectinLEC2) was labeled using the amine reactive protein labeling kit BLUE-NHS from NanoTemper Technologies GmbH (Munich, Germany).
The Microscale Thermophoresis (MST) experiments were carried out in a HEPES buffer adjusted to pH 7.4 containing 150 mM NaCl, 1 mM CaCl2 and 0.05% Tween 20 at a temperature of 25° C. with 50% LED power, 50% laser power, laser on time of 30 seconds, and laser off time of 5 seconds with standard treated capillaries. A fixed concentration of the labeled E-selectinLEC2 protein was incubated for 20 minutes with a 15-datapoint […] 1:1 dilution of ligand starting about 30 times above the expected KD. The observed data points were fitted using the single-site binding function of Alan Cooper, Tutorial Chemistry Texts, Vol 16: Biophysical Chemistry; Royal Society of Chemistry: Cambridge, 2004.

[2] = target: T2, P-selectin (P-selectin/IgG) (Homo sapiens, UniProt P16109); assay: Cell-free P-selectin ligand competitive binding assay (sLe^a-PAA); details: P-selectin/IgG coated plate, sLe^a-PAA streptavidin-POD complex, 25° C., 2 hours; read-out: IC50, Binding Affinity to P-Selectin Determined by Competitive Binding Assay
T2 sequence (P16109 42-771): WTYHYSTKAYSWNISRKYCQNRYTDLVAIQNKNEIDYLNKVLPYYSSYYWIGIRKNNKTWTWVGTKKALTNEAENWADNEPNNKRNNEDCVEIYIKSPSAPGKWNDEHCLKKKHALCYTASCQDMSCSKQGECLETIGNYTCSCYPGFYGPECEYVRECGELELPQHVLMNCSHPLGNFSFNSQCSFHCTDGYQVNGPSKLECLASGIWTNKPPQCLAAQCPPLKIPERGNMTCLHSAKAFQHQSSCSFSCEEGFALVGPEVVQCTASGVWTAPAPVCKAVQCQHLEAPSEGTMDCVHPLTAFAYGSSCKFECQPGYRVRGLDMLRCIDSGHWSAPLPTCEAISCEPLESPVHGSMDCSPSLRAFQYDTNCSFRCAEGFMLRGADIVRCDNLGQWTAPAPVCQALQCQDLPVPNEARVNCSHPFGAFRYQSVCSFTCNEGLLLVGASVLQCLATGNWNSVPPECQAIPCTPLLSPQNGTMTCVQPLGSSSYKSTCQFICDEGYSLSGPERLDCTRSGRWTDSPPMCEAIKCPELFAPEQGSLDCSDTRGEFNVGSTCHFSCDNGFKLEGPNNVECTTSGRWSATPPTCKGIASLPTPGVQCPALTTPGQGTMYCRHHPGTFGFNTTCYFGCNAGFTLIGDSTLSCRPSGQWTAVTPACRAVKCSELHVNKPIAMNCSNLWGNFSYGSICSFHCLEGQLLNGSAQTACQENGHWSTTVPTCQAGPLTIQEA
Experimental: The cell-free P-selectin ligand binding assay was adapted from Weitz-Schmidt et al (G. Weitz-Schmidt, D. Stokmaier, G. Scheel, N. E. Nifant'ev, A. B. Tuzikov, N. V. Bovin, Anal Biochem 1996, 238, 184-190). A MaxiSorp 96-well flat bottom microtiter plate purchased from Nalge Nunc International (Penfield, N.Y., USA) was coated with P-selectin/IgG by incubation with 100 μL/well of the purified protein at a concentration of 3 μg/ml in 10 mM HEPES-NaOH pH 7.4, 150 mM NaCl, 1 mM CaCl2 (HAB-Ca^+). After an overnight incubation at 4° C., the plate was washed three times with HAB-Ca^+ followed by a 2 hour incubation with 200 μL/well of a solution of 3% BSA in HAB-Ca^+ at room temperature to block nonspecific binding. During this incubation, inhibitory test compounds, diluted in HAB-Ca^+, were titrated by a twofold serial and mixed with an equal volume of 0.2 μg/ml of a preformed complex of a biotinylated sialyl Lewis' polyacrylamide polymer (sLe^a-PAA) purchased form GlycoTech Inc. (Gaithsburg, Md., USA) and horseradish peroxidase-labeled streptavidin (streptavidin-POD) purchased from Roche (Rotkreuz, Switzerland). After blocking, the microtiter plate was washed three times with HAB-Ca^+ and 100 μL/well of the inhibitor dilution series premixed with sLe^a-PAA streptavidin-POD complex was transferred to the different wells of the plate. The binding reaction was allowed to proceed at 25° C. After 2 hours, the plate was washed twice with HAB-Ca^+, and 100 μL/well of ABTS (2,2′-azino-bis[3-ethylbenzthiazoline-6-sulfonic acid]) substrate reagent purchased from Invitrogen (Paisley, UK) was added to each well. Adding 100 μL/well of 2% oxalic acid stopped the colorimetric reaction was after 5 minutes. The optical density was determined at […] (SpectraMax). The concentration of antagonist required to inhibit binding by 50% was determined and is reported as the IC50 value.

Kd [1] [µM]	IC50 [2] [µM]	Compound
0.97	82	CCC1CC(C(=O)NCCCc2cn(CCCC(=O)Nc3cc(S(=O)(=O)O)cc4cc(S(=O)(=O)O)cc(S(=O)(=O)O)c34)nn2)CC(OC2OC(CO)C(O)C(OC(CC3CCCCC3)C(=O)O)C2OC(=O)c2ccccc2)C1OC1OC(C)C(O)C(O)C1O (centres unmarked) [Compound 15b]
1.2	210	CCC1CC(C(=O)NCCCc2cn(CCCCC(=O)Nc3cc(S(=O)(=O)O)cc4cc(S(=O)(=O)O)cc(S(=O)(=O)O)c34)nn2)CC(OC2OC(CO)C(O)C(OC(CC3CCCCC3)C(=O)O)C2OC(=O)c2ccccc2)C1OC1OC(C)C(O)C(O)C1O (centres unmarked) [Compound 15c]
1.5	94	CCC1CC(C(=O)NCCCc2cn(CCC(=O)Nc3cc(S(=O)(=O)O)cc4cc(S(=O)(=O)O)cc(S(=O)(=O)O)c34)nn2)CC(OC2OC(CO)C(O)C(OC(CC3CCCCC3)C(=O)O)C2OC(=O)c2ccccc2)C1OC1OC(C)C(O)C(O)C1O (centres unmarked) [Compound 15a]
3	185	CC1CC(C(=O)NCCCc2cn(CCC(=O)Nc3cc(S(=O)(=O)O)cc4cc(S(=O)(=O)O)cc(S(=O)(=O)O)c34)nn2)CC(OC2OC(CO)C(O)C(OC(CC3CCCCC3)C(=O)O)C2OC(=O)c2ccccc2)C1OC1OC(C)C(O)C(O)C1O (centres unmarked) [Compound 17]
